Data reported in ChEMBL document CHEMBL3991601, “The target landscape of clinical kinase drugs” (Science, 2017).
Calls of active or inactive are those of the source. On the calls: in the data inactive means no Kd found up to 30 µM.

Assays:
[1] = target: T1, Delta(24)-sterol reductase (Homo sapiens, UniProt Q15392)
T1 sequence (Q15392 whole entry): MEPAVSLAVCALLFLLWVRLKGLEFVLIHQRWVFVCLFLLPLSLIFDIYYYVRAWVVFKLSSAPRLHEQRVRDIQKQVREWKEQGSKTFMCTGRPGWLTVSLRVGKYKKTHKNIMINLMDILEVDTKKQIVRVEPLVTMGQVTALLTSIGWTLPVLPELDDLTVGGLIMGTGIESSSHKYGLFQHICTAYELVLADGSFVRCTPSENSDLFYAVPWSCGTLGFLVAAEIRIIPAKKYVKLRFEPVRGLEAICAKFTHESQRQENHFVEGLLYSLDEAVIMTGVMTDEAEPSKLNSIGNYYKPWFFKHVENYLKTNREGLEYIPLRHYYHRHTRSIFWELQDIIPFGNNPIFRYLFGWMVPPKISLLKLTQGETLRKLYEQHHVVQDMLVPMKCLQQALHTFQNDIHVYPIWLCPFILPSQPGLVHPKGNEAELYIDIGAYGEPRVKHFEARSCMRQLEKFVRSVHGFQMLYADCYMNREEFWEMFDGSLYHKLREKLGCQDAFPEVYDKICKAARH

[2] = target: T2, Mitogen-activated protein kinase kinase kinase 6 (Homo sapiens, UniProt O95382)
T2 sequence (O95382 whole entry): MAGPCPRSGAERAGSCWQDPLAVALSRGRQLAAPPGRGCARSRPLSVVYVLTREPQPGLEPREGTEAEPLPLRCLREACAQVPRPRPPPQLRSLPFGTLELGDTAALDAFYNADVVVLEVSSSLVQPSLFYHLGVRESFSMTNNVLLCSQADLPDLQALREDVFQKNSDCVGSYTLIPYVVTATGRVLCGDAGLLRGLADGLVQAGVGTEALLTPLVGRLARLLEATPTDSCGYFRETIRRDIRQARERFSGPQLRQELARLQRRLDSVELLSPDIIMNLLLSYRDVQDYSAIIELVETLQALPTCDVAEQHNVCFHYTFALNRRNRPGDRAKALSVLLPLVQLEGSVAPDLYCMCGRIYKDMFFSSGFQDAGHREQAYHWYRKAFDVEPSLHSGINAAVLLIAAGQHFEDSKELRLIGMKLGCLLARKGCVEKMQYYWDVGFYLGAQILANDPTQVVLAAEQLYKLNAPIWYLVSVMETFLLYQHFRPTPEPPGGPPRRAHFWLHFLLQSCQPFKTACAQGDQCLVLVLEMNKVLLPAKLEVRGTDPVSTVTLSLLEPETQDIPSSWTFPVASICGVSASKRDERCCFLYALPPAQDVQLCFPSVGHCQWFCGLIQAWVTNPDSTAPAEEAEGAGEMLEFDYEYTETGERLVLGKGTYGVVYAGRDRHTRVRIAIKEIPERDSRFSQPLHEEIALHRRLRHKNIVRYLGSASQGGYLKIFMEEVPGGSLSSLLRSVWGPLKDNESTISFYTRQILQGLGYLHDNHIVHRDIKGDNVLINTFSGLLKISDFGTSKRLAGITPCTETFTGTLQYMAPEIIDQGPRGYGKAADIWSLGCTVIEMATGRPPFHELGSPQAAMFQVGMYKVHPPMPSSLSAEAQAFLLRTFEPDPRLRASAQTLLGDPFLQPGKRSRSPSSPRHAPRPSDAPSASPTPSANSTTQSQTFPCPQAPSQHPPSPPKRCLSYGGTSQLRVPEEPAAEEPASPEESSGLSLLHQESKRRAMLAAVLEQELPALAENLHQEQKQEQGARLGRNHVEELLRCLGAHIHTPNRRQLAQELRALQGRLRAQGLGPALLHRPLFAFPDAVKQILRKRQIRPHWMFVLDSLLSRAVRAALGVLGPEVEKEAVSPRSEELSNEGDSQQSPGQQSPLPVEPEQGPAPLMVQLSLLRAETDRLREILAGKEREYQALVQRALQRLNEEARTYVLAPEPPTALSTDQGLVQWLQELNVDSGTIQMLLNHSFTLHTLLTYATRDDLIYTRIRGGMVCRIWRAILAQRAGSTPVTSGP

[3] = target: ATP-dependent RNA helicase DDX3X (Homo sapiens, UniProt O00571)
ATP-dependent RNA helicase DDX3X, sequence (O00571 whole entry): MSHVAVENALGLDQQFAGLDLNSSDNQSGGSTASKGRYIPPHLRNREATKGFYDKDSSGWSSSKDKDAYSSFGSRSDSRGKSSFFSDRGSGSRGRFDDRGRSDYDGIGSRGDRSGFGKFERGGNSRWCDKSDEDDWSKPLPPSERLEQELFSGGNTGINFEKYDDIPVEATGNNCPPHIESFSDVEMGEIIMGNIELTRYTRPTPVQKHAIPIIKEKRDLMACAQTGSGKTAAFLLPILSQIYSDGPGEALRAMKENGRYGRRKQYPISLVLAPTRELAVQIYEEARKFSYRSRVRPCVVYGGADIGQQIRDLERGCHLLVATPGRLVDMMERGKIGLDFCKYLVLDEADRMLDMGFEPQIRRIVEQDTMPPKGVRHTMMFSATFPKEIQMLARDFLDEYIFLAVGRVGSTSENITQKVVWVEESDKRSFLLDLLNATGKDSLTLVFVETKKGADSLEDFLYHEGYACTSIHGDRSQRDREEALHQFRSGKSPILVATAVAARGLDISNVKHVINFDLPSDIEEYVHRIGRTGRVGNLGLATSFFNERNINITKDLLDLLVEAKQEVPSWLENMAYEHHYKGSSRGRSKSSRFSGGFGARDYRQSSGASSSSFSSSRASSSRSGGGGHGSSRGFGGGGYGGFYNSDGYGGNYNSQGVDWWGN

[4] = target: T3, Serine/threonine-protein kinase Nek1 (Homo sapiens, UniProt Q96PY6)
T3 sequence (Q96PY6 whole entry): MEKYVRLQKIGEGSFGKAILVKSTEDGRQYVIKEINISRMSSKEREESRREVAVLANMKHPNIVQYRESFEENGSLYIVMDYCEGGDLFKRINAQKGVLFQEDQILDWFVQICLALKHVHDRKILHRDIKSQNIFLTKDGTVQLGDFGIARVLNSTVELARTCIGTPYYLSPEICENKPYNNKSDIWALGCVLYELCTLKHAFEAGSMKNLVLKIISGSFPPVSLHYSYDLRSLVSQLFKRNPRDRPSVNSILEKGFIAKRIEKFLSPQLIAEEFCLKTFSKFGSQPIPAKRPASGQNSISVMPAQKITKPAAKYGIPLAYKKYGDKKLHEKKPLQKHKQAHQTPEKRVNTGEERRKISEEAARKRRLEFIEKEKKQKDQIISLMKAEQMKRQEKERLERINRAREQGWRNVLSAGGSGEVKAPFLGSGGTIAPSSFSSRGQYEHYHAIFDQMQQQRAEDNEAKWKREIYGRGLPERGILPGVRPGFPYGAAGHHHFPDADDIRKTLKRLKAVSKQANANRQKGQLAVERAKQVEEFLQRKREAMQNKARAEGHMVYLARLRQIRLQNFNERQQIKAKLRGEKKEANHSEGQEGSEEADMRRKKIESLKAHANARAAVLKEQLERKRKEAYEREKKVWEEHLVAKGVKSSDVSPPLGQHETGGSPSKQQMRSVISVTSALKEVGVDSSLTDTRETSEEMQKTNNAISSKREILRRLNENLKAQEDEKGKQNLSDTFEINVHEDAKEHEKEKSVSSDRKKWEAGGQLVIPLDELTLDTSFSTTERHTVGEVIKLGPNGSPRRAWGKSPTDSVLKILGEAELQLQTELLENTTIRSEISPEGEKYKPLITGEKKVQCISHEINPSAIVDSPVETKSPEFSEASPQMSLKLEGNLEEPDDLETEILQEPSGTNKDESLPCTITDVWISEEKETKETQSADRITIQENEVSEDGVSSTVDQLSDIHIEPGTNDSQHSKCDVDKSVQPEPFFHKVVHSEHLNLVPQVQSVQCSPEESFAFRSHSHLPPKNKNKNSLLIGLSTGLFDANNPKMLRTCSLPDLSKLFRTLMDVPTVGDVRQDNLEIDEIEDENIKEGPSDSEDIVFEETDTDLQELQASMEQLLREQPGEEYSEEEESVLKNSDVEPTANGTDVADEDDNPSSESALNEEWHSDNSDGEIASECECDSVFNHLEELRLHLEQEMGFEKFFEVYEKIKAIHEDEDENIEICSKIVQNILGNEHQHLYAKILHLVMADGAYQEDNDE

| SMILES | Kd [1] | Kd [2] | Kd [3] | Kd [4] |
| --- | --- | --- | --- | --- |
| Cn1c(=O)c(F)c(Nc2ccc(I)cc2F)c2c(=O)n(C[C@@H](O)CO)cnc21 [TAK-733] | > 30 µM (inactive) | > 30 µM (inactive) | > 30 µM (inactive) | > 30 µM (inactive) |
| COc1cc2ncnc3c2cc1OCCCCCN(C)Cc1ccc(Br)cc1N3 [JNJ-26483327] | – | > 30 µM (inactive) | > 30 µM (inactive) | > 30 µM (inactive) |
| COc1cc2ncnc(Nc3ccc(F)c(Cl)c3)c2cc1NC(=O)/C=C/CN1CCCCC1 [DACOMITINIB ANHYDROUS] | > 30 µM (inactive) | > 30 µM (inactive) | > 30 µM (inactive) | > 30 µM (inactive) |
| C#Cc1cccc(Nc2ncnc3cc4c(cc23)OCCOCCOCCO4)c1 [ICOTINIB] | > 30 µM (inactive) | > 30 µM (inactive) | > 30 µM (inactive) | > 30 µM (inactive) |
| Cc1cc(C(=O)Nc2cc(Oc3ccc4nc(NC(=O)C5CC5)cn4n3)ccc2C)n(C)n1 [TAK-593] | > 30 µM (inactive) | > 30 µM (inactive) | > 30 µM (inactive) | 0.365 µM (active) |
| C[C@]1(O)C[C@@H](c2nc(-c3ccc4ccc(-c5ccccc5)nc4c3)c3c(N)nccn32)C1 [LINSITINIB] | > 30 µM (inactive) | > 30 µM (inactive) | > 30 µM (inactive) | > 30 µM (inactive) |
| COc1cc2ncnc(Nc3ccc(O)cc3)c2cc1OC [WHI-P131] | > 30 µM (inactive) | > 30 µM (inactive) | > 30 µM (inactive) | > 30 µM (inactive) |
| O=C(O)c1ccc2c(c1)nc(Nc1cccc(Cl)c1)c1ccncc12 [SILMITASERTIB] | > 30 µM (inactive) | > 30 µM (inactive) | > 30 µM (inactive) | > 30 µM (inactive) |
| CN(c1ncccc1CNc1nc(Nc2ccc3c(c2)CC(=O)N3)ncc1C(F)(F)F)S(C)(=O)=O [PF-00562271] | > 30 µM (inactive) | > 30 µM (inactive) | > 30 µM (inactive) | > 30 µM (inactive) |
| O[C@H]1CC[C@H](Nc2ncc3nc(Nc4c(F)cc(F)cc4F)n([C@H]4CCOC4)c3n2)CC1 [TANZISERTIB] | > 30 µM (inactive) | > 30 µM (inactive) | > 30 µM (inactive) | > 30 µM (inactive) |
| Cn1c(=O)n(-c2ccc(C(C)(C)C#N)cc2)c2c3cc(-c4cnc5ccccc5c4)ccc3ncc21 [DACTOLISIB] | > 30 µM (inactive) | > 30 µM (inactive) | > 30 µM (inactive) | > 30 µM (inactive) |
| S=C(NCc1ccc2c(c1)OCO2)N1CCN(c2ncnc3c2oc2ccccc23)CC1 [AMUVATINIB] | > 30 µM (inactive) | > 30 µM (inactive) | > 30 µM (inactive) | > 30 µM (inactive) |
| CN1CCN(c2nc(C3=C(c4c[nH]c5ccccc45)C(=O)NC3=O)c3ccccc3n2)CC1 [SOTRASTAURIN] | > 30 µM (inactive) | > 30 µM (inactive) | > 30 µM (inactive) | > 30 µM (inactive) |
| CCOc1ccn(-c2ccc(F)cc2)c(=O)c1C(=O)Nc1ccc(Oc2ccnc(N)c2Cl)c(F)c1 [BMS-777607] | > 30 µM (inactive) | – | > 30 µM (inactive) | > 30 µM (inactive) |
| CC1(COc2ccc3c(c2)ncn3-c2ccc3cccc(N4CCC(N)CC4)c3n2)COC1 [CRENOLANIB] | > 30 µM (inactive) | > 30 µM (inactive) | > 30 µM (inactive) | > 30 µM (inactive) |
| Cn1cnc2c(F)c(Nc3ccc(Br)cc3Cl)c(C(=O)NOCCO)cc21 [SELUMETINIB] | > 30 µM (inactive) | – | > 30 µM (inactive) | – |
| O=S(=O)(c1cccc2cnccc12)N1CCCNCC1 [FASUDIL] | > 30 µM (inactive) | > 30 µM (inactive) | > 30 µM (inactive) | > 30 µM (inactive) |
| CNC(=O)c1cc(COc2nnc(Nc3ccc(Cl)cc3)c3ccoc23)ccn1 [TELATINIB] | > 30 µM (inactive) | > 30 µM (inactive) | > 30 µM (inactive) | > 30 µM (inactive) |
| COc1cc2c(N3CCN(C(=O)Nc4ccc(OC(C)C)cc4)CC3)ncnc2cc1OCCCN1CCCCC1 [TANDUTINIB] | > 30 µM (inactive) | – | > 30 µM (inactive) | – |
| COc1cc(F)c(F)c(Nc2ccc(I)cc2F)c1NS(=O)(=O)C1(C[C@H](O)CO)CC1 [REFAMETINIB] | – | > 30 µM (inactive) | > 30 µM (inactive) | > 30 µM (inactive) |
| COc1cc2c(Oc3ccc4[nH]c(C)cc4c3F)ncnc2cc1OCCCN1CCCC1 [CEDIRANIB] | > 30 µM (inactive) | – | > 30 µM (inactive) | – |
| COc1cccc2cc(-c3nc([C@H]4CC[C@H](C(=O)O)CC4)n4ncnc(N)c34)[nH]c12 [OSI-027] | > 30 µM (inactive) | > 30 µM (inactive) | > 30 µM (inactive) | > 30 µM (inactive) |
| CC1(C)CNc2cc(NC(=O)c3cccnc3NCc3ccncc3)ccc21 [MOTESANIB] | > 30 µM (inactive) | – | > 30 µM (inactive) | – |
| CN(C)C/C=C/C(=O)Nc1cc2c(Nc3ccc(F)c(Cl)c3)ncnc2cc1O[C@H]1CCOC1 [AFATINIB] | > 30 µM (inactive) | – | > 30 µM (inactive) | – |
| C[C@@]1(C(=O)Nc2ccc(F)nc2)CCCN1c1nc(Nc2cc(C3CC3)n[nH]2)c2cccn2n1 [BMS-754807] | > 30 µM (inactive) | – | > 30 µM (inactive) | – |
| N#CCNC(=O)c1ccc(-c2ccnc(Nc3ccc(N4CCOCC4)cc3)n2)cc1 [MOMELOTINIB] | > 30 µM (inactive) | – | > 30 µM (inactive) | > 30 µM (inactive) |
